Measurements taken from patent publication US20250059182A1, “SOS1 INHIBITORS” (Mirati Therapeutics, Inc., priority 2021, published 2025).
Where a name gives a salt, the structure may show the parent alone. Read-outs that look alike come from different tables or passages of the source.

Legend:
[1] = biological target: T1, recombinant human SOS1 polypeptide (amino acids 560-1049) (Homo sapiens, UniProt Q07889); experiment: HTRF displacement assay: inhibition of labeled tracer binding to SOS1
T1 construct: corresponding to amino acids 560-1049, expressed in E. Coli; made in house; host or cells: E. coli
T1 sequence (Q07889 560-1049): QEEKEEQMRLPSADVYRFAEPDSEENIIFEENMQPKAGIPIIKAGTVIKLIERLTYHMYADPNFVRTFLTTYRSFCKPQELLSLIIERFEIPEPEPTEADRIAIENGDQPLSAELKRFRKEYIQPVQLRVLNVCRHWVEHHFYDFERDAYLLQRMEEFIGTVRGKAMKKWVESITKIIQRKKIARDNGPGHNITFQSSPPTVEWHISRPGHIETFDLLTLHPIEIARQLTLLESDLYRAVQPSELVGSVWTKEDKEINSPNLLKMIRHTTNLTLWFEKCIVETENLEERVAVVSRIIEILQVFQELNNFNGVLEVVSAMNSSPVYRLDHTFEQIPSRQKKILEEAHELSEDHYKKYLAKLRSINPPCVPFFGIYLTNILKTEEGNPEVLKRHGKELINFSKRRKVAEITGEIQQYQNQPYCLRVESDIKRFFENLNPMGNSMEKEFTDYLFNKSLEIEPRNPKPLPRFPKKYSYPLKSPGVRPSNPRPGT

[2] = tested on: pERK in MKN1 cells; experiment: pERK inhibition, In-Cell Western (LI-COR Odyssey), MKN1 cells; assay type: cell-based
Method in brief: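 IC50 was fitted from % pERK inhibition, calculated as the GAPDH-normalised pERK signal of each well divided by the vehicle mean. Signal was imaged at 700 and 800 nm after fixation, methanol permeabilisation and dual antibody staining. Before fixation, MKN1 cells had received compound for about 0.5–1 h at 37 °C, top concentration 10 µM, nine 3-fold dilutions.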

[3] = Table A, Morrison equation for competitive binding
[4] = Homo sapiens, MKN-1, Table B, MKN1 or H358 cells (table does not say which), 0.5-1 hour incubation, read-out: IC50 (nM), pERK inhibition
[5] = Table A1, Morrison equation for competitive binding
[6] = Homo sapiens, MKN-1, Table B1, MKN1 or H358 cells (table does not say which), 0.5-1 hour incubation, read-out: IC50 (nM), pERK inhibition

Compound | Ki [1, 3] | IC50 [2, 4] | further results
Cc1c(C#N)cccc1[C@@H](C)Nc1nnc(C)c2cnc(N3CC[C@@H]4[C@H]3CN4C)cc12 (single isomer, unassigned) [Example 6-10] | 0.872 nM | 44.4 nM | 
Cc1c(C#N)cccc1[C@@H](C)Nc1nnc(C)c2cnc(N(C)[C@H]3CCOC3)cc12 [Example 1-71, 2-methyl-3-((R)-1-((4-methyl-7-(methyl((S)-tetrahydrofuran-3-yl)amino)pyrido[3,4-d]pyridazin-1-yl)amino)ethyl)benzonitrile] | 4.69 nM | 47.3 nM | 
Cc1c(C#N)cccc1[C@@H](C)Nc1nnc(C)c2cnc(N3C[C@H]4[C@@H]3CCN4C)cc12 (single isomer, unassigned) [Example 6-9] | 2.12 nM |  | IC50 ([2]; Table B, MKN1 or H358 cells (table does not say which), 0.5-1 hour incubation, read-out: IC50 (nM), pERK inhibition): 69.4 nM
Cc1nnc(N[C@H](C)c2cccc(C(F)F)c2F)c2cc(N3CCC34COC4)c(F)cc12 [Example P-232, (R)-N-(1-(3-(difluoromethyl)-2-fluorophenyl)ethyl)-6-fluoro-4-methyl-7-(6-oxa-1-azaspiro[3.3]heptan-1-yl)phthalazin-1-amine] |  |  | Ki [1, 5]: 1.18 nM; IC50 [2, 6]: 7130 nM
Cc1c(C#N)cccc1[C@@H](C)Nc1nnc(C)c2cnc(N3CCS(=N)(=O)CC3)cc12 [Example 1-84, (R)-3-(1-((7-(1-imino-1-oxido-thiomorpholino)-4-methylpyrido[3,4-d]pyridazin-1-yl)amino)ethyl)-2-methylbenzonitrile] | 2.34 nM | 2730 nM | 
Cc1nnc(N[C@H](C)c2cccc(C(F)(F)F)c2F)c2cc(N3CC[C@@H](N(C)C)C3)ncc12 [Example 1-86, 7-((R)-3-(dimethylamino)pyrrolidin-1-yl)-N-((R)-1-(2-fluoro-3-(trifluoromethyl)phenyl)ethyl)-4-methylpyrido[3,4-d]pyridazin-1-amine] | 0.372 nM | 50.8 nM | 
Cc1nnc(N[C@H](C)c2cccc(C(F)(F)F)c2F)c2cc(N3C[C@H]4C[C@@H]3CO4)c(C#N)cc12 [Example 6-20, 7-((1R,4R)-2-oxa-5-azabicyclo[2.2.1]heptan-5-yl)-1-(((R)-1-(2-fluoro-3-(trifluoromethyl)phenyl)ethyl)amino)-4-methylphthalazine-6-carbonitrile] | 1.4 nM | 218 nM | 
Cc1nnc(N[C@H](C)c2cccc(C(F)F)c2F)c2cc(N3CCC34CNC4)ncc12 [Example P-237, (R)-N-(1-(3-(difluoromethyl)-2-fluorophenyl)ethyl)-4-methyl-7-(1,6-diazaspiro[3.3]heptan-1-yl)pyrido[3,4-d]pyridazin-1-amine] |  |  | Ki [1, 5]: 0.515 nM; IC50 [2, 6]: 182 nM
Cc1c(C#N)cccc1[C@@H](C)Nc1nnc(C)c2cnc(N(C)C[C@H]3CCCN3C)cc12 [Example 1-58, 2-methyl-3-((R)-1-((4-methyl-7-(methyl(((R)-1-methylpyrrolidin-2-yl)methyl)amino)pyrido[3,4-d]pyridazin-1-yl)amino)ethyl)benzonitrile] | 1.89 nM | 73.8 nM | 
Cc1nnc(N[C@H](C)c2ccc(C#N)cc2F)c2cc(N3CCN4CCOC[C@@H]4C3)ncc12 [Example 1-97, 3-fluoro-4-((R)-1-((7-((S)-hexahydropyrazino[2,1-c][1,4]oxazin-8(1H)-yl)-4-methylpyrido[3,4-d]pyridazin-1-yl)amino)ethyl)benzonitrile] | 17.7 nM | 358 nM | 
CO[C@@H]1CCN(c2cc3c(N[C@H](C)c4cccc(C#N)c4C)nnc(C)c3cn2)C1 [Example 1-49, 3-((R)-1-((7-((R)-3-methoxypyrrolidin-1-yl)-4-methylpyrido[3,4-d]pyridazin-1-yl)amino)ethyl)-2-methylbenzonitrile] | 2.01 nM | 36 nM | 
Cc1c(C#N)cccc1[C@@H](C)Nc1nnc(C)c2ccc(N3CCC34CN(C)C4)cc12 [Example P-235, (R)-2-methyl-3-(1-((4-methyl-7-(6-methyl-1,6-diazaspiro[3.3]heptan-1-yl)phthalazin-1-yl)amino)ethyl)benzonitrile formic acid salt] |  |  | Ki [1, 5]: 0.618 nM; IC50 ([2]; Homo sapiens, MKN-1, read-out: IC50 (nM), pERK inhibition): 95.8 nM
Cc1c(C#N)cccc1[C@@H](C)Nc1nnc(C)c2cc(Cl)c(N3CCC34CN(C)C4)cc12 [Example P-198, (R)-3-(1-((6-chloro-4-methyl-7-(6-methyl-1,6-diazaspiro[3.3]heptan-1-yl)phthalazin-1-yl)amino)ethyl)-2-methylbenzonitrile] |  |  | Ki [1, 5]: 1.1 nM; IC50 [2, 6]: 182 nM
CCOCCN1CC2(C1)CN(c1cc3c(N[C@H](C)c4cccc(C#N)c4C)nnc(C)c3cn1)C2 [Example 1-60, (R)-3-(1-((7-(6-(2-ethoxyethyl)-2,6-diazaspiro[3.3]heptan-2-yl)-4-methylpyrido[3,4-d]pyridazin-1-yl)amino)ethyl)-2-methylbenzonitrile] | 0.93 nM | 39.9 nM | 
Cc1nnc(N[C@H](C)c2cccc3c2OCC3(F)F)c2cc(N3CCN(C)CC3)ncc12 [Example 1-100, (R)-N-(1-(3,3-difluoro-2,3-dihydrobenzofuran-7-yl)ethyl)-4-methyl-7-(4-methylpiperazin-1-yl)pyrido[3,4-d]pyridazin-1-amine] | 0.423 nM | 25.1 nM | 
Cc1c(C#N)cccc1[C@@H](C)Nc1nnc(C)c2cnc(N3CCN(C(C)C)CC3)cc12 [Example 1-70, (R)-3-(1-((7-(4-isopropylpiperazin-1-yl)-4-methylpyrido[3,4-d]pyridazin-1-yl)amino)ethyl)-2-methylbenzonitrile] | 0.927 nM | 44.2 nM | 
Cc1nnc(N[C@H](C)c2cccc(C(F)(F)F)c2F)c2cc(N(C)[C@@H]3CCCN(C)C3)ncc12 [Example 1-90, N^1-((R)-1-(2-fluoro-3-(trifluoromethyl)phenyl)ethyl)-N^7,4-dimethyl-N^7-((R)-1-methylpiperidin-3-yl)pyrido[3,4-d]pyridazine-1,7-diamine] | 0.453 nM | 102 nM | 
Cc1c([C@@H](C)Nc2nnc(C)c3cnc(N(C)[C@H]4CCNC4)cc23)cccc1C(F)(F)F [Example 1-64, N^7,4-dimethyl-N^1-((R)-1-(2-methyl-3-(trifluoromethyl)phenyl)ethyl)-N^7-((S)-pyrrolidin-3-yl)pyrido[3,4-d]pyridazine-1,7-diamine] | 0.246 nM | 66.3 nM | 
Cc1c(C#N)cccc1[C@@H](C)Nc1nnc(C)c2cnc(N(C)C[C@@H]3CCCN3)cc12 [Example 1-55, 2-methyl-3-((R)-1-((4-methyl-7-(methyl(((S)-pyrrolidin-2-yl)methyl)amino)pyrido[3,4-d]pyridazin-1-yl)amino)ethyl)benzonitrile] | 2.18 nM | 290 nM | 
Cc1c(C#N)cccc1[C@@H](C)Nc1nnc(C)c2cc(F)c(N3C[C@@H]4C[C@H]3CO4)cc12 [Example 4-13, 3-((R)-1-((7-((1S,4S)-2-oxa-5-azabicyclo[2.2.1]heptan-5-yl)-6-fluoro-4-methylphthalazin-1-yl)amino)ethyl)-2-methylbenzonitrile] | 16.1 nM | 165 nM | 
Cc1nnc(N[C@H](C)c2cccc(C(C)(F)F)c2F)c2cc(N3CCN(C)CC3)ncc12 [Example 1-109, (R)-N-(1-(3-(1,1-difluoroethyl)-2-fluorophenyl)ethyl)-4-methyl-7-(4-methylpiperazin-1-yl)pyrido[3,4-d]pyridazin-1-amine] | 0.647 nM | 41.3 nM | 
Cc1c(C#N)cccc1[C@@H](C)Nc1nnc(C)c2cnc(N3CCN(C(=O)[C@@H]4CCCN4C)CC3)cc12 [Example 2-2, 2-methyl-3-((R)-1-((4-methyl-7-(4-(methyl-L-prolyl)piperazin-1-yl)pyrido[3,4-d]pyridazin-1-yl)amino)ethyl)benzonitrile] | 0.845 nM | 456 nM | 
Cc1c(C#N)cccc1[C@@H](C)Nc1nnc(C)c2cnc(N3CCN(C(=O)[C@H]4CCCCN4C)CC3)cc12 [Example 2-8, 2-methyl-3-((R)-1-((4-methyl-7-(4-((R)-1-methylpiperidine-2-carbonyl)piperazin-1-yl)pyrido[3,4-d]pyridazin-1-yl)amino)ethyl)benzonitrile] | 0.67 nM | 211 nM | 
Cc1nnc(N[C@H](C)c2cccc(C(F)(F)F)c2F)c2cc(N3CC4(CNC4)C3)ncc12 [Example 1-87, (R)-N-(1-(2-fluoro-3-(trifluoromethyl)phenyl)ethyl)-4-methyl-7-(2,6-diazaspiro[3.3]heptan-2-yl)pyrido[3,4-d]pyridazin-1-amine] | 0.524 nM | 273 nM | 
CCN1CC2(C1)CN(c1cc3c(N[C@H](C)c4cccc(C(F)(F)F)c4F)nnc(C)c3cn1)C2 [Example 1-27, (R)-7-(6-ethyl-2,6-diazaspiro[3.3]heptan-2-yl)-N-(1-(2-fluoro-3-(trifluoromethyl)phenyl)ethyl)-4-methylpyrido[3,4-d]pyridazin-1-amine] | 0.27 nM | 18.6 nM | 
